In brackets after ≈: the same amount, converted by molar mass.
How the values were obtained:
[1] = solubility of rac-1 in organic solvent (dichloromethane); assay type: physicochemical; details: organic solvent or mixture
Description: To overcome this obstacle, the present inventors discovered an enantioselective approach to (S,1E,NE)-N-(1-aminoethylidene)-3-(4-chlorophenyl)-4-phenyl-N′-((4-(trifluoromethyl)phenyl)sulfonyl)-4,5-dihydro-1H-pyrazole-1-carboximidamide (S)-1 in high optical purity.

[2] = biological target: CB1R (Homo sapiens, UniProt P21554); details: in vivo; mediated by the CB1R antagonism; cited from earlier work
[3] = test system: animal models of fibrosis; details: mediated by iNOS inhibition and CB1R antagonism; cited from earlier work

Sequence of CB1R (P21554 whole entry): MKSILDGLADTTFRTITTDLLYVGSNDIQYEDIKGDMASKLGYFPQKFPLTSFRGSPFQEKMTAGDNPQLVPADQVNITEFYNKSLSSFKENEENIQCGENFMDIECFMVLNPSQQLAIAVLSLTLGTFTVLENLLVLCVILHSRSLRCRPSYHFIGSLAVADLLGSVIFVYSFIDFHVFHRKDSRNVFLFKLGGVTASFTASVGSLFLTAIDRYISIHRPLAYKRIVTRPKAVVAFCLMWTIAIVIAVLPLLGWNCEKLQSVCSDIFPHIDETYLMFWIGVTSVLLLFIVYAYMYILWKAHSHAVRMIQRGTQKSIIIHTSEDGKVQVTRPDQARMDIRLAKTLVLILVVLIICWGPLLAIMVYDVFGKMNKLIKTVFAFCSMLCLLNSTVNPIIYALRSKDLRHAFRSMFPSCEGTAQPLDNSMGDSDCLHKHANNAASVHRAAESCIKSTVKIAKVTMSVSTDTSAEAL

solubility [1] [µg/mL]	Compound	food intake [2]	antifibrotic effect [3]
~1000 (≈ 1820 µM)	C/C(N)=N\C(=N/S(=O)(=O)c1ccc(C(F)(F)F)cc1)N1CC(c2ccccc2)C(c2ccc(Cl)cc2)=N1 (racemic) [rac-1, (1E,NE)-N-(1-aminoethylidene)-3-(4-chlorophenyl)-4-phenyl-N′-((4-(trifluoromethyl)phenyl)sulfonyl)-4,5-dihydro-1H-pyrazole-1-carboximidamide]	–	–
–	C/C(N)=N\C(=N\S(=O)(=O)c1ccc(C(F)(F)F)cc1)N1C[C@H](c2ccccc2)C(c2ccc(Cl)cc2)=N1 [(S)-1, (S,1E,NE)-N-(1-aminoethylidene)-3-(4-chlorophenyl)-4-phenyl-N′-((4-(trifluoromethyl)phenyl)sulfonyl)-4,5-dihydro-1H-pyrazole-1-carboximidamide]	reduction of food intake	antifibrotic effect

— patent US12286405B2, “Scalable synthesis of dual-target inhibitor of cannabinoid-1 receptor and inducible nitric oxide synthase” (THE UNITED STATES OF AMERICA, AS REPRESENTED BY THE …, priority 2019, dated 2025)
